Tests used:
[1] = target: T1, N-CTD (C-terminal domain of the SARS-CoV-2 nucleocapsid (N) protein) (Severe acute respiratory syndrome coronavirus 2, UniProt P0DTC9); assay: fluorescence intensity inhibition of FAM-RNA binding; assay type: biochemical
[2] = target: T1, N-CTD (C-terminal domain of the SARS-CoV-2 nucleocapsid (N) protein); assay: biochemical; assay type: binding

## CC1(C)S[C@@H]2[C@H](NC(=O)[C@H](N)c3ccccc3)C(=O)N2[C@H]1C(=O)O [ampicillin]
[1]
  IC50: 10.4 ± 0.2 µM
[2]
  Kd: 28 ± 1.2 µM

## CO/N=C(\C(=O)N[C@@H]1C(=O)N2C(C(=O)O)=C(CSc3nc(=O)c(=O)[nH]n3C)CS[C@H]12)c1csc(N)n1 [ceftriaxone]
[1]
  IC50: 12.4 ± 2.4 µM
[2]
  Kd: 18 ± 1.3 µM

## CO/N=C(\C(=O)N[C@@H]1C(=O)N2C(C(=O)O)=C(COC(N)=O)CS[C@H]12)c1ccco1 [cefuroxime]
[1]
  IC50: 15.4 ± 2.8 µM
[2]
  Kd: 55 ± 4.2 µM

From publication doi:10.1101/2024.10.11.617762v1 (biorxiv, 2024)
